Assay results reported in ChEMBL document CHEMBL1201862, “PubChem BioAssay data set” (2004).
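A five-concentration, 48-hour dose response in 96-well plates underlies each endpoint, interpolated linearly between surrounding concentrations. GI50 marks 50% less growth.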 Active and inactive are the calls of the source. Cut-off read from the data, not from the text of the source: active = GI50 up to about 1.1 µM and inactive = higher. Where a SMILES comes first, the peptide text is derived from it. The star is where a group is joined. Boc = CC(C)(C)OC(=O)*

Columns and labels:
Assay in all cases: DTP human tumour cell line panel, 48 h
[1] = tested on: ACHN
[2] = tested on: UO-31
[3] = tested on: M14
[4] = tested on: Malme-3M
[5] = tested on: CAKI-1
[6] = tested on: SF-295
[7] = tested on: HCT-116
[8] = tested on: SK-MEL-2
[9] = tested on: K562
[10] = tested on: MDA-N
[11] = tested on: OVCAR-5
[12] = tested on: MOLT-4
[13] = tested on: SW-620
[14] = tested on: NCI-H460
[15] = tested on: NCI-H522
[16] = tested on: SK-MEL-5
[17] = tested on: SNB-19
[18] = tested on: HL-60
[19] = tested on: MDA-MB-231
[20] = tested on: OVCAR-4

Row | SMILES | GI50 [1] | GI50 [2] | GI50 [3] | GI50 [4] | GI50 [5] | GI50 [6] | GI50 [7] | GI50 [8] | GI50 [9] | GI50 [10] | GI50 [11] | GI50 [12] | GI50 [13] | GI50 [14] | GI50 [15] | GI50 [16] | GI50 [17] | GI50 [18] | GI50 [19] | GI50 [20]
1 | CC(NC(=O)C(NC(=O)OC(C)(C)C)C(C)C)C(=O)NCC(=O)O (stereo not drawn) (Boc-Val-Ala-Gly-OH; configuration not given here) | > 100 µM (inactive) | > 100 µM (inactive) | > 100 µM (inactive) | > 100 µM (inactive) | > 100 µM (inactive) | > 100 µM (inactive) | > 100 µM (inactive) | > 100 µM (inactive) | > 100 µM (inactive) | > 100 µM (inactive) | > 100 µM (inactive) | > 100 µM (inactive) | > 100 µM (inactive) | > 100 µM (inactive) | > 100 µM (inactive) | > 100 µM (inactive) | > 100 µM (inactive) |  |  | 
2 | Nc1nc(-c2ccccc2)nc2c1[n+]([O-])c1ccccc1[n+]2[O-] | > 100 µM (inactive) | > 100 µM (inactive) | > 100 µM (inactive) | > 100 µM (inactive) | > 100 µM (inactive) | > 100 µM (inactive) | > 100 µM (inactive) | > 100 µM (inactive) | > 100 µM (inactive) |  | > 100 µM (inactive) |  | > 100 µM (inactive) | > 100 µM (inactive) | > 100 µM (inactive) | 83.4 µM (inactive) | > 100 µM (inactive) | > 100 µM (inactive) | > 100 µM (inactive) | 
3 | COC(=O)c1c2n(c3ccccc13)C[C@H]1OC(C)(C)O[C@@H]21 | > 100 µM (inactive) | > 100 µM (inactive) | > 100 µM (inactive) | > 47 µM (inactive) | > 65.6 µM (inactive) | > 100 µM (inactive) | > 100 µM (inactive) | > 100 µM (inactive) | > 100 µM (inactive) |  | > 100 µM (inactive) | > 100 µM (inactive) | > 100 µM (inactive) | > 100 µM (inactive) | > 100 µM (inactive) | > 100 µM (inactive) | > 100 µM (inactive) |  | > 100 µM (inactive) | > 100 µM (inactive)
4 | COc1cccc(C2c3cc4c(cc3OC(N3CCCC3)C2C)OCO4)c1OC (stereo not drawn) | 2.49 µM (inactive) | 2.27 µM (inactive) | 9.08 µM (inactive) |  | 0.561 µM (active) | 1.92 µM (inactive) | 1.64 µM (inactive) | 3.89 µM (inactive) | 3.17 µM (inactive) | 4.76 µM (inactive) | 3.67 µM (inactive) | 2.77 µM (inactive) | 1.65 µM (inactive) | 3.17 µM (inactive) | 3.69 µM (inactive) | 2.87 µM (inactive) | 1.58 µM (inactive) |  |  | 
5 | CCOc1ccc(NC(=O)CC2SC(Nc3ccc(C)cc3C)=NC2=O)cc1 (stereo not drawn) | > 100 µM (inactive) | > 100 µM (inactive) | > 100 µM (inactive) | > 100 µM (inactive) | > 100 µM (inactive) | > 100 µM (inactive) | > 100 µM (inactive) | > 100 µM (inactive) | 52 µM (inactive) |  | > 100 µM (inactive) | 21.4 µM (inactive) | > 100 µM (inactive) | > 100 µM (inactive) | 5.38 µM (inactive) | > 100 µM (inactive) | 54.3 µM (inactive) | 43.8 µM (inactive) |  | 90.8 µM (inactive)
6 | CCOC(=O)C(CC(C)C)NC(=O)CSc1nnc(COc2ccc(Cl)cc2)n1-c1ccccc1 (stereo not drawn) | 13.3 µM (inactive) | 1.86 µM (inactive) | 18 µM (inactive) | 19.3 µM (inactive) |  |  | 14.8 µM (inactive) | 16.3 µM (inactive) | 19.3 µM (inactive) |  | 19.9 µM (inactive) | 4.51 µM (inactive) | 20 µM (inactive) | 14.9 µM (inactive) |  | 17.1 µM (inactive) | 17.3 µM (inactive) | 21 µM (inactive) | 16.9 µM (inactive) | 16.2 µM (inactive)
7 | CCCCCCC(/C=N/O)C(C)(O)CCC (stereo not drawn) | > 100 µM (inactive) | > 100 µM (inactive) | > 100 µM (inactive) | > 100 µM (inactive) | > 100 µM (inactive) | > 100 µM (inactive) | 91.4 µM (inactive) | > 100 µM (inactive) | 84.3 µM (inactive) |  | > 100 µM (inactive) | 61.7 µM (inactive) | > 100 µM (inactive) | > 100 µM (inactive) | 37.7 µM (inactive) | > 100 µM (inactive) | > 100 µM (inactive) | 67.9 µM (inactive) |  | > 100 µM (inactive)
8 | CCOc1ccc(N/C(=C(/C(Cl)=C(/Cl)NCCO)[N+](=O)[O-])n2nnc3ccccc32)cc1 | 19.5 µM (inactive) | 19.5 µM (inactive) | 30.4 µM (inactive) | 18.4 µM (inactive) | 14.4 µM (inactive) | 28 µM (inactive) | 37.7 µM (inactive) | 35 µM (inactive) | 20.8 µM (inactive) | 28.9 µM (inactive) | 35.6 µM (inactive) | 5.96 µM (inactive) | 19.2 µM (inactive) | 48 µM (inactive) |  |  | 51.1 µM (inactive) |  | 20.6 µM (inactive) | 16.7 µM (inactive)
9 | CC1=CC(=O)/C(=C/Nc2nc(-c3cccc([N+](=O)[O-])c3)cs2)C(=O)O1 | 46.2 µM (inactive) | 29.9 µM (inactive) | 64.1 µM (inactive) |  | 24.8 µM (inactive) | > 100 µM (inactive) | 37.7 µM (inactive) | > 100 µM (inactive) |  |  | > 100 µM (inactive) |  | 43.4 µM (inactive) | > 100 µM (inactive) |  | 54.2 µM (inactive) | > 100 µM (inactive) | 13.6 µM (inactive) | 57.4 µM (inactive) | > 100 µM (inactive)
10 | COC(=O)C(C(=O)C(=O)Nc1nnc(S)[nH]1)c1csc(N)n1 (stereo not drawn) | > 100 µM (inactive) | > 100 µM (inactive) | > 100 µM (inactive) | > 100 µM (inactive) | > 100 µM (inactive) | > 100 µM (inactive) | > 100 µM (inactive) | > 100 µM (inactive) | > 100 µM (inactive) |  | > 100 µM (inactive) | > 100 µM (inactive) | > 100 µM (inactive) | > 100 µM (inactive) | > 100 µM (inactive) | > 100 µM (inactive) | > 100 µM (inactive) | > 100 µM (inactive) |  | > 100 µM (inactive)
11 | O=C1OC(c2cccc(C(F)(F)F)c2)c2ccc3ccccc3c21 (stereo not drawn) | > 10 µM (inactive) | 9.68 µM (inactive) | > 10 µM (inactive) | > 10 µM (inactive) | > 10 µM (inactive) | 12.2 µM (inactive) | > 10 µM (inactive) | > 10 µM (inactive) | 4.76 µM (inactive) |  | > 10 µM (inactive) | 6.31 µM (inactive) | > 10 µM (inactive) | > 10 µM (inactive) | > 10 µM (inactive) | 4.74 µM (inactive) | > 10 µM (inactive) | 5.5 µM (inactive) |  | > 10 µM (inactive)
12 | CCC(C)(O)c1cn(-c2cccc(S(=O)(=O)O)c2)nn1 (stereo not drawn) | > 100 µM (inactive) | > 100 µM (inactive) | > 100 µM (inactive) | > 100 µM (inactive) | > 100 µM (inactive) | > 100 µM (inactive) | > 100 µM (inactive) | > 100 µM (inactive) | > 100 µM (inactive) |  | > 100 µM (inactive) | > 100 µM (inactive) | > 100 µM (inactive) | > 100 µM (inactive) | > 100 µM (inactive) | > 100 µM (inactive) | > 100 µM (inactive) | > 100 µM (inactive) |  | > 100 µM (inactive)
13 | O=C1C(Cl)=C(NCCCN2CCOCC2)C(=O)c2c(O)ccc(O)c21 | 9.18 µM (inactive) | 1.64 µM (inactive) | 1.96 µM (inactive) | 1.91 µM (inactive) |  | 2.53 µM (inactive) | 1.59 µM (inactive) | 0.228 µM (active) | 2.62 µM (inactive) | 1.72 µM (inactive) | 1.71 µM (inactive) | 1 µM (active) | 1.95 µM (inactive) | 3.13 µM (inactive) |  | 1.1 µM (active) | 1.66 µM (inactive) |  | 3.01 µM (inactive) | 
14 | N#C/C(=C\c1ccc2[nH]ccc2c1)C(=O)c1ccc(O)c(O)c1 | 45.8 µM (inactive) | 45 µM (inactive) | > 63.1 µM (inactive) | > 65.8 µM (inactive) | > 100 µM (inactive) | 61.4 µM (inactive) | > 53.6 µM (inactive) | > 78.9 µM (inactive) | 48.4 µM (inactive) | > 100 µM (inactive) | > 73.8 µM (inactive) | 44.7 µM (inactive) | 55.2 µM (inactive) | 37 µM (inactive) | 29.4 µM (inactive) | > 75.2 µM (inactive) | 50 µM (inactive) | 27.5 µM (inactive) |  | > 64.3 µM (inactive)
15 | COc1ccc(CCNCCCC2c3ccccc3-c3ccccc32)cc1OC | 16.1 µM (inactive) | 11.6 µM (inactive) | 4.8 µM (inactive) | 13.6 µM (inactive) | 18.4 µM (inactive) | 15.6 µM (inactive) | 12.6 µM (inactive) | 6.68 µM (inactive) | 4.09 µM (inactive) | 16.7 µM (inactive) | 19.2 µM (inactive) | 22.6 µM (inactive) | 7.33 µM (inactive) | 7.16 µM (inactive) | 15.9 µM (inactive) | 10.6 µM (inactive) | 16.7 µM (inactive) | 12.9 µM (inactive) |  | 15.8 µM (inactive)
16 | COc1ccc(OC)c2c3c(ccc12)C(c1ccccc1)OC3=O (stereo not drawn) | 55.7 µM (inactive) | 36.8 µM (inactive) | > 100 µM (inactive) | 59 µM (inactive) | 55.1 µM (inactive) | 52.6 µM (inactive) | 72.9 µM (inactive) | 55 µM (inactive) | 47.2 µM (inactive) |  | > 100 µM (inactive) | 32.9 µM (inactive) | 85.1 µM (inactive) | 47.2 µM (inactive) | 36.5 µM (inactive) | 47.5 µM (inactive) | > 100 µM (inactive) | 33.7 µM (inactive) |  | 70.1 µM (inactive)
